According to the NIST ThermoML archive (doi:10.1016/j.jct.2015.03.001):
± gives the expanded uncertainty stated by the source.

How the values were obtained:
[1] = refractive index (Na D-line) (dimensionless); xn = mol fraction of the nth substance listed; details: 99 kPa, Liquid, Abbe refractometer
[2] = relative permittivity at various frequencies (dimensionless); xn = mol fraction of the nth substance listed; details: 99 kPa, Liquid, Frequency=2 MHz, Parallel plate capacitor

CC(C)CCl [1-chloro-2-methylpropane] + CCCCCCC
Details	refractive index, 283.15 K	refractive index, 298.15 K	refractive index, 313.15 K	relative permittivity, 283.15 K	relative permittivity, 298.15 K	relative permittivity, 313.15 K
[1], x2 = 0	1.40354 ± 0.00031	1.39529 ± 0.00031	1.38683 ± 0.00031	–	–	–
[1], x2 = 0.0485	1.40248 ± 0.00031	1.39425 ± 0.00031	1.38582 ± 0.00031	–	–	–
[1], x2 = 0.1009	1.40145 ± 0.00031	1.39325 ± 0.00031	1.38485 ± 0.00031	–	–	–
[1], x2 = 0.2046	1.39974 ± 0.00031	1.39161 ± 0.00031	1.38327 ± 0.00031	–	–	–
[1], x2 = 0.3065	1.3983 ± 0.00031	1.39022 ± 0.00031	1.38196 ± 0.00031	–	–	–
[1], x2 = 0.4028	1.39716 ± 0.00031	1.38914 ± 0.00031	1.38093 ± 0.00031	–	–	–
[1], x2 = 0.5039	1.3961 ± 0.00031	1.38814 ± 0.00031	1.37999 ± 0.00031	–	–	–
[1], x2 = 0.603	1.3952 ± 0.00031	1.38729 ± 0.00031	1.3792 ± 0.00031	–	–	–
[1], x2 = 0.7033	1.39445 ± 0.00031	1.3866 ± 0.00031	1.37858 ± 0.00031	–	–	–
[1], x2 = 0.8026	1.39381 ± 0.00031	1.38601 ± 0.00031	1.37804 ± 0.00031	–	–	–
[1], x2 = 0.9158	1.39326 ± 0.00031	1.38548 ± 0.00031	1.37758 ± 0.00031	–	–	–
[1], x2 = 0.9513	1.3931 ± 0.00031	1.38538 ± 0.00031	1.37749 ± 0.00031	–	–	–
[2], x2 = 0	–	–	–	7.472 ± 0.075	7.074 ± 0.071	6.657 ± 0.067
[2], x2 = 0.0467	–	–	–	7.151 ± 0.072	6.783 ± 0.068	6.395 ± 0.064
[2], x2 = 0.1011	–	–	–	6.755 ± 0.068	6.418 ± 0.064	6.062 ± 0.061
[2], x2 = 0.197	–	–	–	6.042 ± 0.06	5.749 ± 0.058	5.45 ± 0.055
[2], x2 = 0.297	–	–	–	5.32 ± 0.053	5.08 ± 0.051	4.828 ± 0.048
[2], x2 = 0.4028	–	–	–	4.619 ± 0.046	4.43 ± 0.044	4.232 ± 0.042
[2], x2 = 0.5045	–	–	–	4.028 ± 0.04	3.88 ± 0.039	3.725 ± 0.037
[2], x2 = 0.6012	–	–	–	3.537 ± 0.035	3.425 ± 0.034	3.3 ± 0.033
[2], x2 = 0.7002	–	–	–	3.094 ± 0.031	3.012 ± 0.03	2.918 ± 0.029
[2], x2 = 0.801	–	–	–	2.697 ± 0.027	2.636 ± 0.026	2.568 ± 0.026
[2], x2 = 0.9058	–	–	–	2.303 ± 0.023	2.262 ± 0.023	2.219 ± 0.022
[2], x2 = 0.9473	–	–	–	2.147 ± 0.021	2.114 ± 0.021	2.081 ± 0.021
